The term Solubility denotes the dissolved amount per volume that the medium holds.

Data set [1] is described as follows: Conductivity of dipeptides at their pI. The data set is classed as physicochemical. The text has this: (§1) Table 1 lists conductivities and solubilities of selected dipeptides useful in the present invention, at their pI.
The nature of data set [2]: pKa, pI and charge distribution of buffers. The conditions noted are these: for % salt: fraction of dipeptide carrying a net charge in aqueous solution at pH equal to pI. The text has this:
At the pI, three species coexist.
In an electric field these negative species move in the opposite direction of their positive associated counterions.
Choice of the dipeptide buffer will be on a case-by-case basis depending on the drug compound and the desired level of pH control and conductivity of the formulation.

The nature of data set [3]: Solubility of dipeptides at their pI. The data set is classed as physicochemical.
Description: as §1

Data set [4] can be described thus: In vivo iontophoresis, pH control of anodic and cathodic buffer gels (Example 2). On the set-up: species or system hairless guinea pigs; Ionic strength (approx.): unit not given here. Particulars: for Anodic pH after 5 h electrotransport / Cathodic pH after 5 h electrotransport: 0.1 mA/cm^2; for Initial pH: prior to application; for pH control of a cathodic electrotransport formulation: for at least 5 hours; for pH control of a cathodic electrotransport formulation / pH control of an anodic electrotransport formulation: dipeptides at their pI; for pH control of an anodic electrotransport formulation: for several hours. How it is done:
In vivo iontophoresis experiments were performed using custom built electrotransport systems. […] This formulation was separated from the anode electrode by a Sybron ion exchange membrane. […] The cathode-compartment comprised a skin-contacting gel containing the aqueous solution of the buffering agent at the indicated concentration and 3% HEC. This formulation was separated from the cathode electrode by a Nafion ion exchange membrane. […] The electrodes were connected to a DC power source which supplied a constant level of electric current of 0.1 mA/cm^2. Experiments were performed in vivo in hairless guinea pigs. Three animals were used for each condition studied. The electrotransport systems were applied to and removed from the flank of the animals. The two reservoirs were generally spaced about 5 cm apart. The application site was wiped with water prior to system application. pH of the gels was measured prior to application and after removal of the systems using a HORIBA compact pH […]).

Setting [5] is: anodic gel, listed as Phosphate 33 mM.
Setting [6] is: anodic gel, listed as Phosphate 100 mM.

Converted amounts (≈) assume the structure as drawn. Read-outs that look alike come from different tables or passages of the source. Non-standard residues stand in square brackets, D forms with d. Residues, ends and D or L forms follow the SMILES beside them. Orn = NCCC[C@H](N)C(=O)O

Take `C[C@H](NC(=O)[C@@H](N)Cc1cnc[nH]1)C(=O)O` [His-Ala] (H-His-Ala-OH): the “Conductivity at 10^−2 Molar” value in data set [1] worked out at 60 μS/cm. In data set [2], the “pka A” value came to 2.48 and the “% salt” value is given as 22%. The compound further came in with a pI in data set [2] (Table 1) of 6.95. The pI in data set [2] (Table 2) was found to be 6.95. Also, the Solubility in data set [3] is 500 mM (≈ 113 mg/mL).
On to `NCCCC[C@H](N)C(=O)N[C@@H](CCC(=O)O)C(=O)O` [Lys-Glu] (H-Lys-Glu-OH), for which the “Conductivity at 10^−2 Molar” value in data set [1] is recorded as 8 μS/cm. The pI in data set [2] (Table 1) and in data set [2] (Table 2) was 6.06 throughout. For the same compound, the “% salt” value in data set [2] came out at 3%. In data set [3], the Solubility was 500 mM (≈ 138 mg/mL).
Consider `NCCCC[C@H](N)C(=O)N[C@@H](CC(=O)O)C(=O)O` [Lys-Asp] (H-Lys-Asp-OH), for which the “Conductivity at 10^−2 Molar” value in data set [1] is 6 μS/cm. Moreover, the pI in data set [2] (Table 1) and in data set [2] (Table 2) was 6.08 throughout. For the same compound, the “% salt” value in data set [2] worked out at 2%. The compound further showed a Solubility in data set [3] of 1000 mM (≈ 261 mg/mL).
Regarding `N[C@@H](Cc1cnc[nH]1)C(=O)NCC(=O)O` [His-Gly] (H-His-Gly-OH), the “Conductivity at 10^−2 Molar” value in data set [1] was 40 μS/cm. Besides, in data set [2], the “pka A” value is 2.41 and the “% salt” value stood at 16%. This compound also came in with a pI in data set [2] (Table 1) of 6.90. In data set [2] (Table 2), this compound displayed a pI of 6.90. The compound further came in with a Solubility in data set [3] of 1000 mM (≈ 212 mg/mL).
As for `N[C@@H](Cc1cnc[nH]1)C(=O)N[C@@H](CC(=O)O)C(=O)O` [His-Asp] (H-His-Asp-OH), the “Conductivity at 10^−2 Molar” value in data set [1] is listed as 28 μS/cm. In addition, the pI in data set [2] (Table 1) and in data set [2] (Table 2) was 5.22 throughout. Also, the “% salt” value in data set [2] is reported as 11%. The Solubility in data set [3] was 50 mM (≈ 13.5 mg/mL).
Turning to `O=S(=O)(O)CCCN1CCOCC1` [MOPS, 3-[N-morpholino]propanesulphonic acid, reference compound], in data set [4] (Table 3, anodic buffer gel), the “Ionic strength (approx.)” value is ~0.01. For the same compound, the “Ionic strength (approx.)” value in data set [4] (Table 4, cathodic buffer gel) was ~0.01. In data set [4] (anodic gel), the “Anodic pH after 5 h electrotransport” value was found to be 4.1 and the “Initial pH” value was 7.0. In data set [4] (cathodic gel), the “Cathodic pH after 5 h electrotransport” value is reported as 5.4 and the “Initial pH” value was 7.0. In addition, in data set [4], the “pH control of a cathodic electrotransport formulation” value is reported as “lack of stability” and the “pH control of an anodic electrotransport formulation” value was “lack of stability”. The compound further registered a pI in data set [2] of 4. In data set [2] (at pI), the “buffering capacity at its pI” value is recorded as “does not present any buffering capacity” and the “conductivity of solutions at its pI” value is reported as “non-conductive”. Besides, in data set [2] (pH 7), the “net charge at pH 7” value is reported as −0.5.
Regarding `NCCC[C@H](NC(=O)[C@@H](N)Cc1c[nH]cn1)C(=O)O` [His-Ornithine] (H-His-[Orn]-OH), in data set [2], the “pka A” value was 2.82 and the “% salt” value came out at 5%. Moreover, the pI in data set [2] (Table 2) is listed as 9.40.
On the same counts, the results for `N[C@@H](Cc1cnc[nH]1)C(=O)N[C@@H](Cc1cnc[nH]1)C(=O)O` [His-His] are 2.25, 32% and 7.40.
As to `N[C@@H](Cc1ccc(O)cc1)C(=O)N[C@@H](Cc1cnc[nH]1)C(=O)O` [Tyr-His] (H-Tyr-His-OH), in data set [2] (Table 2), the pI stood at 7.15. The “% salt” value in data set [2] stood at 39%.
For `NCCCC[C@H](NC(=O)[C@@H](N)CCC(=O)O)C(=O)O` [Glu-Lys] (H-Glu-Lys-OH), in data set [1], the “Conductivity at 10^−2 Molar” value was determined as 6 μS/cm. In addition, the pI in data set [2] (Table 1) and in data set [2] (Table 2) was 6.00 each time. Besides, in data set [2], the “% salt” value is 2%. This compound also yielded a Solubility in data set [3] of 1000 mM (≈ 275 mg/mL).
`N[C@@H](CC(=O)O)C(=O)N[C@@H](Cc1cnc[nH]1)C(=O)O` [Asp-His] (H-Asp-His-OH) displayed a pI in data set [2] (Table 2) of 4.90. Besides, the “% salt” value in data set [2] stood at 3%.
Take `O=C(O)C(Cc1cnc[nH]1)NC(=O)C1CCCN1` (stereo not drawn) [Pro-His]: in data set [2], the “pka A” value is reported as 2.42 and the “% salt” value amounted to 11%. Besides, the pI in data set [2] (Table 2) was 7.90.
On the same counts, the results for `CC[C@H](C)[C@H](N)C(=O)N[C@@H](Cc1cnc[nH]1)C(=O)O` [Isoleucine-His] (H-Ile-His-OH) are 2.42, 25% and 7.44.
On the same counts, the results for `NC(=O)CC[C@H](NC(=O)[C@@H](N)Cc1cnc[nH]1)C(=O)O` [His-Gln] (H-His-Gln-OH) are 2.93, 22% and 6.95.
Compound `N[C@@H](Cc1cnc[nH]1)C(=O)N[C@@H](Cc1ccc(O)cc1)C(=O)O` [His-Tyr] (H-His-Tyr-OH) registered a pI in data set [2] (Table 2) of 6.95. Further, the “% salt” value in data set [2] stood at 22%.
For `CC(C)[C@H](NC(=O)[C@@H](N)Cc1cnc[nH]1)C(=O)O` [His-Val] (H-His-Val-OH), in data set [2], the “pka A” value worked out at 3.18 and the “% salt” value was found to be 22%. This compound gave a pI in data set [2] (Table 2) of 6.95.
Consider `NCCCC[C@H](NC(=O)[C@@H](N)Cc1cnc[nH]1)C(=O)O` [His-Lys] (H-His-Lys-OH), for which, in data set [2], the “pka A” value is 3.05 and the “% salt” value turned out to be 5%. In data set [2] (Table 2), this compound showed a pI of 9.40.
Turning to `O=P(O)(O)O` [phosphate, phosphoric acid, reference compound], the “Ionic strength (approx.)” value in data set [4] (Table 3, anodic buffer gel, listed as Phosphate 10 mM) is given as ~0.015; in data set [4] (Table 3, anodic buffer gel, listed as Phosphate 33 mM) it was ~0.05; in data set [4] (Table 3, anodic buffer gel, listed as Phosphate 100 mM) it was ~0.15; in data set [4] (Table 4, cathodic buffer gel) it was ~0.015. The “Anodic pH after 5 h electrotransport” value in data set [4] (setting [5]) was 3.3; in data set [4] (setting [6]) it was 6.5. For the same compound, the “Initial pH” value in data set [4] (anodic gel, listed as Phosphate 10 mM) is 6.9; in data set [4] (setting [5]) it was 6.9; in data set [4] (setting [6]), 6.8; in data set [4] (cathodic gel), 6.9. In data set [4] (cathodic gel), the “Cathodic pH after 5 h electrotransport” value was found to be 4.2. Also, the “pH control of a cathodic electrotransport formulation” value in data set [4] is “lack of stability”. In data set [4], the “pH control of an anodic electrotransport formulation” value is given as “lack of stability”.
As to `CC(C)[C@H](N)C(=O)N[C@@H](Cc1cnc[nH]1)C(=O)O` [Val-His] (H-Val-His-OH), the “Conductivity at 10^−2 Molar” value in data set [1] came out at 94 μS/cm. Moreover, in data set [2], the “pka A” value was determined as 3.09 and the “% salt” value is 34%. Moreover, the pI in data set [2] (Table 1) was 7.38. In addition, the pI in data set [2] (Table 2) was found to be 7.38. The compound also returned a Solubility in data set [3] of 200 mM (≈ 50.9 mg/mL).
Take `CC(C)C[C@H](NC(=O)[C@@H](N)Cc1cnc[nH]1)C(=O)O` [His-Leu] (H-His-Leu-OH): in data set [2], the “pka A” value is reported as 3.10 and the “% salt” value came to 22%. The compound further had a pI in data set [2] (Table 2) of 6.95.
In turn, “Gly-Gly-Gly-His (GGGH; printed: Gly-Gly-Gly-His)” yielded a pI in data set [2] of 7.5.
With `C[C@H](N)C(=O)N[C@@H](Cc1cnc[nH]1)C(=O)O` [Ala-His] (H-Ala-His-OH), in data set [2], the “pka A” value is given as 2.42 and the “% salt” value is on record as 22%. In addition, the pI in data set [2] (Table 2) was determined as 7.55.
For `N[C@@H](Cc1cnc[nH]1)C(=O)N[C@@H](Cc1ccccc1)C(=O)O` [His-Phe] (H-His-Phe-OH), in data set [2], the “pka A” value was found to be 2.88 and the “% salt” value stood at 22%. In addition, the pI in data set [2] (Table 2) stood at 6.95.
Consider `NCCC[C@H](N)C(=O)N[C@@H](Cc1c[nH]cn1)C(=O)O` [Ornithine-His], for which, in data set [2], the “pka A” value is listed as 2.42 and the “% salt” value amounted to 3%. The pI in data set [2] (Table 2) is on record as 9.20.
For the compound `NCCC(=O)N[C@@H](Cc1cnc[nH]1)C(=O)O` [Carnosine], the pI in data set [2] (Table 2) is reported as 8.17. Moreover, in data set [2], the “% salt” value was 8%.

The record behind these values is patent publication US20070078096A1, “Buffered drug formulations for transdermal electrotransport delivery” (priority 1997, published 2007).
